We go through 2 compounds from paper PMC2758489 (Journal of neurochemistry, 2009).

The target of this experiment is tau (Homo sapiens, UniProt P10636, P618L). In words: heparin-induced fibrillization, ThT fluorescence. In kind it is biochemical.

SMILES strings stand for the structures.

Sequence of tau (P10636 561-689 P618L): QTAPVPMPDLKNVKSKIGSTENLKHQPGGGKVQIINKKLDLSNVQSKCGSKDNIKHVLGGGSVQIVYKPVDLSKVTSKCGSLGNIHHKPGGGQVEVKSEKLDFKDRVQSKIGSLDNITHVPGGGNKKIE

The term IC50 denotes the point on the concentration scale where inhibition reaches its midpoint. Take `C/C=C(/C=O)[C@@H](CC=O)CC(=O)OCCc1ccc(O)cc1` [compound 1, (-)-oleocanthal]: the IC50 is about 2.9 µM.

Turning to `C/C=C(/C=O)[C@H](CC=O)CC(=O)OCCc1ccc(O)cc1` [(+)-oleocanthal], the IC50 is about 3.5 µM.
